Measured values taken from US10525186B2 (Fresenius Medical Care Holdings, Inc., priority 2009, dated 2020).

Experiment: Hemodialysis treatments with trisodium citrate infusion into the arterial line and Citrasate dialysate; measured ionized calcium
Assay type: in vivo, maintenance HD patients
Conditions: 15 min into the treatment, mean±SD
Procedure: For one treatment only, Citrasate with 2.5 mEq/L Ca was used. No post-dialyzer Ca infusion was performed. Total Ca, Ca^++ and total Ci were measured systemically, pre- and post-dialyzer at the following time points: before HD (systemically only), at several time points throughout the treatment, and at the end of HD. […] Total protein and albumin were measured before dialysis. The most recent alkaline phosphatase (AP) and total parathyroid hormone (PTH) (Scantibodies assay, Scantibodies Laboratory, Inc., Santee, Calif.) were recorded. […] All subjects used Optiflux F180NR dialyzers (Fresenius Medical Care North America, Waltham, Mass.).
Measured and predicted systemic Ca^++ were compared pre-HD and at 15 min into the treatment. For the latter, pre-HD predicted were adjusted to measured values. Pre- and post-dialyzer comparisons between measured and estimated Ca^++ were performed at 15 min into the treatment. Deviations between predicted and measured systemic Ca^++ over the entire treatment were compared for tertiles of AP and tPTH.
Results are presented below as mean±standard deviation (SD) unless otherwise noted. Differences between predicted and measured values were calculated as predicted minus measured and were tested for significant deviation from zero by means of two-tailed one-sample t test. Bland-Altman plots were generated and the underlying data analyzed for systematic bias by means of linear regression. Statistical significance was accepted for an alpha level of <0.05.

[1] = Citrasate dialysate, no post-dialyzer Ca infusion

Structure (SMILES): O=C([O-])CC(O)(CC(=O)[O-])C(=O)[O-].[Na+].[Na+].[Na+] [Trisodium citrate]
- Measured post-dialyzer Ca [1]: 0.7 ± 0.05 mmol/L
- Measured systemic Ca++ [1]: 1.01 ± 0.05 mmol/L
- Measured pre-dialyzer Ca (after citrate infusion): 0.33 ± 0.06 mmol/L
